Entries after “also recorded” stand apart in the source; their conditions may differ.
Tests used:
[1] = system: mild traumatic brain injury (mTBI) model; assay: Mild traumatic brain injury (mTBI) model in mice; type: in vivo, Adult CD1 mice; settings: CD1 mice, versus vehicle
[2] = system: T-cell acute lymphoblastic leukemia (CCRF-CEM) cells; assay: Inhibition of CXCL12-induced chemotaxis in lymphoblastic leukemia cells; type: cell-based; settings: Homo sapiens, CXCL12 10 nM, 2.5 h at 37 °C, read-out: concentration required to inhibit chemotaxis by 50% (EC50)
Procedure: The response of cancer cells to compounds of Formula (I) was evaluated using the chemotaxis assay as set forth below.
T-cell acute lymphoblastic leukemia (CCRF-CEM) cells in Roswell Park Memorial Institute medium (RPMI) 1640 supplemented with 10% […] were incubated with 250 μL of a test compound. The assay was performed using Millicell Hanging Cell Culture Inserts (pore size 5 μm; 24-well plate; Millipore, Bedford, Mass., USA). After 10 minutes at 37° C., 250 μL of cells pre-incubated with a test compound were plated per well in the upper chambers of the inserts at a density of 2.5×10^5 cells/well. 300 μL/well medium containing CXCL12 (10 nM) and a test compound were plated in the lower chamber of the insert. After 2.5 h at 37° C., cells in both chambers of inserts were measured by flow cytometry (Guava Technologies, Hayward, Calif., USA).

[3] = biological target: T1, human CXCR4 (Homo sapiens, UniProt P61073); assay: Inhibition of 125I-CXCL12 radioligand binding, membranes of human CXCR4-transfected HEK293 cells; settings: 0.16 nM 125I-CXCL12, 60 min at 30 °C, read-out: concentration required to inhibit binding of 125I-CXCL12 to CXCR4 by 50% (IC50)
T1 construct: expressed in transfected cells; host or cells: HEK293 cells (membranes)
T1 sequence (P61073 whole entry): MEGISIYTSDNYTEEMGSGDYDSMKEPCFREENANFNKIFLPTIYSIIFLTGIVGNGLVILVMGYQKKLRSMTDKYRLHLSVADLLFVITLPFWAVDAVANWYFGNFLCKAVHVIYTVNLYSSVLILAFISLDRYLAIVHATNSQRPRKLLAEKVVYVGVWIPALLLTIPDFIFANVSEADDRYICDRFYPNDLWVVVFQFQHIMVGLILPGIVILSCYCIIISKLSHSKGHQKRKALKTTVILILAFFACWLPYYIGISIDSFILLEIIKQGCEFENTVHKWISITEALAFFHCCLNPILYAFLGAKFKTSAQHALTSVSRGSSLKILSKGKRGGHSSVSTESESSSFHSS
Procedure: Binding competition between the compounds of Formula (I) and human CXCL12 was assessed using a radioligand binding assay as described below.
Membranes (2-4 μg) prepared from human CXCR4-transfected HEK293 cells in 40 μL of assay buffer (50 mM HEPES-NaOH, pH 7.4, 100 mM NaCl, 5 mM MgCl2, 1 mM CaCl2, 0.5% bovine serum albumin) were incubated with 20 μL of radio-labeled ^125I-CXCL12 (0.16 nM) and 20 μL of a test compound in an assay plate (Costar Corning, Cambridge, Mass.). After 60 minutes at 30° C., the incubation was terminated by transferring the resulting reaction mixture to a 96-well GF/B filter plate (Millipore Corp., Billerica, Mass.) and filtered via a manifold. The plate was washed with 100 μL of ice-cold wash buffer (50 mM HEPES-NaOH, pH 7.4, 100 mM NaCl) four times. The radioactivity bound to the filter was measured by Topcount (PerkinElmer Inc., Waltham, Mass.).

[4] = system: HCC cell line HCA-1; assay: Syngeneic orthotopic hepatocellular carcinoma (HCC) mouse model; type: in vivo, C3H mice
Procedure: The efficacy of a compound of Formula (I), i.e., Compounds 42, in treating HCC was assessed using a syngeneic mouse model as follows.
C3H mouse-derived HCC cell line HCA-1 was used. HCA-1 cells were orthotopically implanted in C3H mice for 10 days. The mice were subsequently treated with sorafenib (a small molecule drug for treating hepatocellular carcinoma; 40 mg/kg) daily for two weeks or treated with vehicle (PBS) alone as a control. Tested compounds, e.g., AMD3100 (10 mg/kg/day) and Compound 42 (10 mg/kg/day), were each administered continuously to those mice treated with sorafenib using an Alzet osmotic pump (DURECT Corporation, Cupertino, Calif.) for two weeks.

[5] = system: rat ischemic myocardial infarction model; assay: Rat ischemic myocardial infarction model; type: in vivo, Male SD rats; settings: SD rats; 5 mg/kg single subcutaneous injection 30 minutes before LAD ligation; 24 hours; versus saline
Procedure: The efficacy of a compound of Formula (I), i.e., Compound 42, in protecting against myocardial infarction was assessed in a rat ischemic myocardial infarction model as follows.
Male SD rats (400-500 gram each) received a single subcutaneous injection of Compound 42 at a dosage of 5 mg/kg or an equal volume of saline (n=18-20 per group) 30 minutes before surgery was conducted. Left anterior descending artery (LAD) was transiently ligated using a 6-0 nylon suture for a 30-minute ischemic period in this surgery. After 24 hours, each rat was anesthetized and the LAD was ligated again. 2 mL of 5% Evan's Blue was then injected into the tail vein and allowed to perfuse for 2 minutes. The heart was immediately excised, washed with saline, froze at −80° C., and cut in semi-frozen state into 2-mm thick sections. Slices were then incubated in 1% tri-phenyltetrazolium chloride solution for 10 minutes at 37° C. and fixed in 10% formalin. Infarct size was recorded after staining.

For `Cc1cc(NC2CCN(C(=O)CCNCC(=O)O)CC2)nc(NCc2nc(CCCNCCCNC3CCCCC3)co2)n1` [Compound 42], the “vertical activity and vertical movement time in mTBI mice” value ([1]; 3 mg/kg, 24 hours starting 15-minute after injury) was “significantly improved vertical activity”, the “expression of inflammatory marker IBA1 in the lesioned cortex (qRTPCR)” value ([1]; 3 mg/kg, cortex collected day 5 after mTBI, 3 mg/kg) was “significantly reduced IBA1 expression; also recorded: significantly suppressed” and the “locomotor activity after mTBI” value ([1]; early post-treatment given systemically after mTBI) was “significantly improved locomotor activity”. For the same molecule, the EC50 [2] was less than 50 nM, the IC50 [3] was less than 50 nM and the body weight loss ([4]; C3H mice with HCA-1 tumors, 10 mg/kg/day for two weeks) was “no significant body weight loss”. For the same molecule, the tumor size ([4]; C3H mice with orthotopic HCA-1, 10 mg/kg/day by osmotic pump for two weeks, combined with sorafenib 40 mg/kg daily, control about 400 mm^3) was “about 50 mm^3” and the “protection of heart against ischemic damage (infarct size)” value [5] was “protected heart against ischemic damage to a large degree”.

From patent US10882854B2, “Heterocyclic compounds and use thereof” (National Health Research Institutes, priority 2017, dated 2021)
